From article PMC11184945, “Inhibition mechanism investigation of quercetagetin as a potential tyrosinase inhibitor” (Frontiers in Chemistry, 2024)

Target: T1, tyrosinase (mushroom) (Agaricus bisporus, UniProt C7FF04)
T1 construct: gene PPO3
Assay: L-dopa oxidation assay at […] nm with Lineweaver-Burk kinetics (Ki […], Kis […]); static fluorescence quenching, CD
Format: biochemical

T1 sequence (C7FF04 2-392): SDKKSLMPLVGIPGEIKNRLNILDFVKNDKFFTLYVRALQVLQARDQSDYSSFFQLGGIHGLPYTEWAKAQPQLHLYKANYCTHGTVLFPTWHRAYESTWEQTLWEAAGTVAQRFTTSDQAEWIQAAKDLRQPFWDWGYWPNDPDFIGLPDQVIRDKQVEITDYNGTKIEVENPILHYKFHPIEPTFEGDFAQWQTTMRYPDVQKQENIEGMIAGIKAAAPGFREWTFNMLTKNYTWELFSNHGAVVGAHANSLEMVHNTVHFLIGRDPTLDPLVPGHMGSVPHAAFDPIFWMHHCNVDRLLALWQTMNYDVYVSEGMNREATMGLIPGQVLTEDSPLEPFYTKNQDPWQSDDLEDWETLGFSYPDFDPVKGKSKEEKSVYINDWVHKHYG

Work on O=c1c(O)c(-c2ccc(O)c(O)c2)oc2cc(O)c(O)c(O)c12 [quercetagetin, 3,3′,4′,5,6,7-hexahydroxyflavone] yielded an IC50 of 190 ± 10 µM.
